Assay results from patent publication US20130345051A1, “FUNGICIDAL AND BACTERICIDAL COMPOSITION THAT COMPRISES VOLATILE ORGANIC COMPOUNDS OF NATURAL ORIGIN” (BIOFUNGITEK, SOCIEDAD LIMITADA, priority 2011, published 2013).
≈ marks a conversion by molar mass, not a printed value.

Columns and labels:
[1] = system: Erwinia carotovora; test: Gas-phase bioassay in hermetically sealed vials, growth inhibition of the bacterium Erwinia carotovora; format: cell-based; details: compound in the gas phase; for IC50: Pectobacterium carotovorum, read-out: IC50 (50% inhibiting concentration)
Procedure: (§1) The antifungal and antibacterial activity of the VOC obtained in Example 1 was tested by bioassay in hermetically sealed vials in which the microorganism was cultured while being exposed to the compound under test in the gas phase at different concentrations. […] The IC50 (50% inhibiting concentration), the MIC (minimum inhibiting concentration) and the MLC (minimum lethal concentration) were calculated.

[2] = system: Botrytis cinerea; test: Gas-phase bioassay in hermetically sealed vials, growth inhibition of the fungus Botrytis cinerea; format: cell-based; details: compound in the gas phase; for IC50: read-out: IC50 (50% inhibiting concentration)
Procedure: as §1

IC50 [1]	MIC (minimum inhibiting concentration) [1]	MIC (minimum inhibiting concentration) [2]	IC50 [2]	Structure (SMILES)	MLC (minimum lethal concentration) [1]	MLC (minimum lethal concentration) [2]
> 150 mg/L	>150 mg/Lair	40 mg/Lair	5 mg/L (≈ 32.4 µM)	CC1(C)[C@@H]2CC[C@@]1(C)[C@H](O)C2 (racemic) [isoborneol]	>150 mg/Lair	40 mg/Lair
15 mg/L (≈ 115 µM)	50 mg/Lair	5 mg/Lair	4 mg/L (≈ 30.7 µM)	CCCCC(CC)CO (stereo not drawn) [2-ethyl-1-hexanol]	75 mg/Lair	10 mg/Lair
150 mg/L (≈ 1470 µM)	>150 mg/Lair	20 mg/Lair	15 mg/L (≈ 147 µM)	CCCCCCO [hexanol]	>150 mg/Lair	40 mg/Lair
